Source: patent US20230404887A1, “COMPOSITIONS TO LIMIT OR ELIMINATE THE PERCEPTION OF SWEAT MALODOR” (Firmenich SA, priority 2020, published 2023)

Experiments:
[1] = Expert perfumer evaluation of malodor reduction, dynamic olfactometer, against 3M2HA; set-up: species or system human; conditions: for EFFECTIVE CONCENTRATION: MO 3M2HA held fixed at mid-intensity (0.5), headspace concentration providing an effective level; for EXPERT RATING: MO 3M2HA held fixed at mid-intensity (0.5 on scale 0-1), rating of degree of malodor reduction at the effective concentration
Protocol: (§1) The effectiveness of perfuming materials in compositions to reduce the perception of, for example, axillary sweat malodors, was evaluated by an expert perfumer by 1) selecting target axillary malodor components, 2) delivering target malodor components and candidate malodor reducing materials to the nose of an expert perfumer at carefully controlled concentrations, 3) having the expert perfumer identify the concentration at which malodor reduction was obtained, and 4) rating the degree of reduction achieved at the concentration identified in step 3.
(§2) In this method, a dynamic multi-channel olfactometer was used to precisely deliver known gas phase concentrations of the test materials, using forced evaporation, into a stream of air emanating from a smelling port. The appropriate concentration of the malodor component was established prior to its being mixed with the candidate malodor reducing substance. The concentration was set at a concentration sufficient to produce an intensity of 0.5 (mid-intensity) on a scale of 0-1. The expert perfumer then dynamically adjusted the concentration of the candidate malodor reducing substance to determine the effective concentration, while maintaining a fixed concentration of the malodor component. Once the appropriate concentration had been determined, the expert perfumer evaluated the perception of the mixtures repeatedly over a period of several minutes, taking breaks in between sniffs to avoid adaptation to the components being tested, before providing a rating.
(§3) Tests were performed in a forced-evaporation, dynamic olfactometer, with malodor component concentrations held fixed at a mid-intensity. Ratings of effectiveness were based in the following scale: −2 (significant increase in malodor), −1 (slight increase in malodor), 0 (no effect), 1 (slight malodor reduction), 2 (good malodor reduction), 3 (complete malodor reduction). The malodor (MO) component abbreviations are 3H3MHA (3-methyl-3-hydroxyhexanoic acid), 3M2HA (3-methyl-2-hexenoic acid), 3M3SH (3-methyl-3-sulphanylhexanol).

[2] = Expert perfumer evaluation of malodor reduction, dynamic olfactometer, against 3M3SH; set-up: species or system human; conditions: for EFFECTIVE CONCENTRATION: MO 3M3SH held fixed at mid-intensity (0.5), headspace concentration providing an effective level; for EXPERT RATING: MO 3M3SH held fixed at mid-intensity (0.5 on scale 0-1), rating of degree of malodor reduction at the effective concentration
Protocol: as §1, §2, §3

O=C1CCCCCCC/C=C/CCCCCCO1 [(10E)-OXACYCLOHEPTADEC-10-EN-2-ONE]
EFFECTIVE CONCENTRATION [1]: 7.17E−02 micrograms/L AIR | EXPERT RATING [1]: 2 | EFFECTIVE CONCENTRATION [2]: 2.87E−01 micrograms/L AIR | EXPERT RATING [2]: 2

COC(Cc1ccccc1)OC [(2,2-DIMETHOXYETHYL)BENZENE]
EFFECTIVE CONCENTRATION [1]: 3.92E+00 micrograms/L AIR | EXPERT RATING [1]: 3 | EFFECTIVE CONCENTRATION [2]: 3.92E+00 micrograms/L AIR | EXPERT RATING [2]: 2

CCc1occc(=O)c1O [2-ETHYL-3-HYDROXY-4(4H)-PYRANONE]
EFFECTIVE CONCENTRATION [1]: 1.83E−02 micrograms/L AIR | EXPERT RATING [1]: 3 | EFFECTIVE CONCENTRATION [2]: 1.83E−02 micrograms/L AIR | EXPERT RATING [2]: 2

CC1C/C=C/CCCCCCCCCC(=O)C1 (racemic) [(+−)-(5E)-3-METHYL-5-CYCLOPENTADECEN-1-ONE]
EFFECTIVE CONCENTRATION [1]: 2.33E−01 micrograms/L AIR | EXPERT RATING [1]: 2 | EFFECTIVE CONCENTRATION [2]: 5.83E−01 micrograms/L AIR | EXPERT RATING [2]: 1

CCCCCCC/C=C\CCC=O [(4Z)-4-DODECENAL]
EFFECTIVE CONCENTRATION [1]: 1.03E−04 micrograms/L AIR | EXPERT RATING [1]: 2 | EFFECTIVE CONCENTRATION [2]: 2.07E−04 micrograms/L AIR | EXPERT RATING [2]: 1

TRICYCLO[5.2.1.0(2,6)]DEC-3/4-EN-8-YL PROPANOATE
EFFECTIVE CONCENTRATION [1]: 7.08E−02 micrograms/L AIR | EXPERT RATING [1]: 3 | EFFECTIVE CONCENTRATION [2]: 1.42E−01 micrograms/L AIR | EXPERT RATING [2]: 2

CCCCCCCC=O [OCTANAL]
EFFECTIVE CONCENTRATION [1]: 6.17E−01 micrograms/L AIR | EXPERT RATING [1]: 3 | EFFECTIVE CONCENTRATION [2]: 3.08E−01 micrograms/L AIR | EXPERT RATING [2]: 2

CCCCCCCCCC=O [DECANAL]
EFFECTIVE CONCENTRATION [1]: 5.00E−01 micrograms/L AIR | EXPERT RATING [1]: 3 | EFFECTIVE CONCENTRATION [2]: 2.50E−01 micrograms/L AIR | EXPERT RATING [2]: 2

OCCc1ccccc1 [2-PHENYLETHANOL]
EFFECTIVE CONCENTRATION [1]: 5.42E−01 micrograms/L AIR | EXPERT RATING [1]: 3 | EFFECTIVE CONCENTRATION [2]: 1.08E+00 micrograms/L AIR | EXPERT RATING [2]: 2

COc1ccc(COC(C)=O)cc1 [4-METHOXYBENZYL ACETATE]
EFFECTIVE CONCENTRATION [1]: 1.18E+00 micrograms/L AIR | EXPERT RATING [1]: 3 | EFFECTIVE CONCENTRATION [2]: 2.37E+00 micrograms/L AIR | EXPERT RATING [2]: 2

CCC(C)CCCC(C)(C)O (racemic)
EFFECTIVE CONCENTRATION [1]: 5.40E+00 micrograms/L AIR | EXPERT RATING [1]: 2 | EFFECTIVE CONCENTRATION [2]: 1.08E+01 micrograms/L AIR | EXPERT RATING [2]: 2

CCCCCOC(=O)c1ccccc1O [PENTYL 2-HYDROXYBENZOATE]
EFFECTIVE CONCENTRATION [2]: 5.00E−01 micrograms/L AIR | EXPERT RATING [2]: 3

CCC(C)(O)CCCC(C)C (racemic)
EFFECTIVE CONCENTRATION [1]: 9.27E+00 micrograms/L AIR | EXPERT RATING [1]: 2

COc1ccc2ccccc2c1 [2-METHOXYNAPHTHALENE]
EFFECTIVE CONCENTRATION [1]: 1.25E−02 micrograms/L AIR | EXPERT RATING [1]: 3 | EFFECTIVE CONCENTRATION [2]: 5.00E−02 micrograms/L AIR | EXPERT RATING [2]: 3

COC(=O)c1c(C)cc(O)c(C)c1O [METHYL 2,4-DIHYDROXY-3,6-DIMETHYLBENZOATE]
EFFECTIVE CONCENTRATION [1]: 3.50E−03 micrograms/L AIR | EXPERT RATING [1]: 3 | EFFECTIVE CONCENTRATION [2]: 3.50E−03 micrograms/L AIR | EXPERT RATING [2]: 3

COC(=O)/C=C/c1ccccc1 [METHYL (E)-3-PHENYL-2-PROPENOATE]
EFFECTIVE CONCENTRATION [1]: 7.00E−02 micrograms/L AIR | EXPERT RATING [1]: 3 | EFFECTIVE CONCENTRATION [2]: 9.33E−02 micrograms/L AIR | EXPERT RATING [2]: 2

O=CCCc1ccccc1 [3-PHENYLPROPANAL]
EFFECTIVE CONCENTRATION [1]: 2.60E+00 micrograms/L AIR | EXPERT RATING [1]: 3 | EFFECTIVE CONCENTRATION [2]: 2.60E+00 micrograms/L AIR | EXPERT RATING [2]: 3

Cc1ccc(C(C)C)c(O)c1 [THYMOL]
EFFECTIVE CONCENTRATION [1]: 5.17E−02 micrograms/L AIR | EXPERT RATING [1]: 3 | EFFECTIVE CONCENTRATION [2]: 1.03E−01 micrograms/L AIR | EXPERT RATING [2]: 3

C=CCCCCCCCCC=O [10-UNDECENAL]
EFFECTIVE CONCENTRATION [1]: 9.50E−03 micrograms/L AIR | EXPERT RATING [1]: 3 | EFFECTIVE CONCENTRATION [2]: 9.50E−02 micrograms/L AIR | EXPERT RATING [2]: 2

CCCCCCCCCCC=O [UNDECANAL]
EFFECTIVE CONCENTRATION [1]: 5.42E−02 micrograms/L AIR | EXPERT RATING [1]: 3 | EFFECTIVE CONCENTRATION [2]: 2.17E−01 micrograms/L AIR | EXPERT RATING [2]: 3

CC(=O)CCc1ccc(O)cc1 [4-(4-HYDROXYPHENYL)-2-BUTANONE]
EFFECTIVE CONCENTRATION [1]: 1.50E−04 micrograms/L AIR | EXPERT RATING [1]: 3 | EFFECTIVE CONCENTRATION [2]: 6.00E−04 micrograms/L AIR | EXPERT RATING [2]: 1

CCC(C)c1ccc2ncccc2c1 (racemic) [(+−)-6-SEC-BUTYLQUINOLINE]
EFFECTIVE CONCENTRATION [2]: 1.83E−02 micrograms/L AIR | EXPERT RATING [2]: 3

CC(=O)/C=C/C1=C(C)CCCC1(C)C
EFFECTIVE CONCENTRATION [1]: 5.83E−02 micrograms/L AIR | EXPERT RATING [1]: 3 | EFFECTIVE CONCENTRATION [2]: 1.17E−01 micrograms/L AIR | EXPERT RATING [2]: 3

CCCCCC1(C)CCC(C)(C)C1=O (racemic)
EFFECTIVE CONCENTRATION [1]: 1.22E+00 micrograms/L AIR | EXPERT RATING [1]: 2

CC/C=C(\C)C(O)CCCCC (racemic) [(+−)-(E)-4-METHYL-3-DECEN-5-OL]
EFFECTIVE CONCENTRATION [1]: 2.13E−01 micrograms/L AIR | EXPERT RATING [1]: 3 | EFFECTIVE CONCENTRATION [2]: 4.27E−01 micrograms/L AIR | EXPERT RATING [2]: 3

C=CC(C)(CC/C=C(\C)CC)OC(C)=O (racemic) [(+−)-(6E)-3,7-dimethyl-1,6-nonadien-3-yl acetate]
EFFECTIVE CONCENTRATION [2]: 6.67E+00 micrograms/L AIR | EXPERT RATING [2]: 2

CC(C)=C[C@H]1C[C@@H](C)CCO1 (racemic) [(2RS,4SR)-4-METHYL-2-(2-METHYL-1-PROPEN-1-YL)TETRAHYDRO-2H-PYRAN]
EFFECTIVE CONCENTRATION [1]: 6.83E−01 micrograms/L AIR | EXPERT RATING [1]: 2 | EFFECTIVE CONCENTRATION [2]: 6.83E−01 micrograms/L AIR | EXPERT RATING [2]: 1

O=c1ccc2ccccc2o1 [2-CHROMENONE]
EFFECTIVE CONCENTRATION [1]: 9.83E−03 micrograms/L AIR | EXPERT RATING [1]: 3 | EFFECTIVE CONCENTRATION [2]: 7.87E−02 micrograms/L AIR | EXPERT RATING [2]: 3

CCCCCCCCCC(C)C=O (racemic) [(+−)-2-METHYLUNDECANAL]
EFFECTIVE CONCENTRATION [1]: 2.33E−03 micrograms/L AIR | EXPERT RATING [1]: 2

OC/C=C/c1ccccc1 [(2E)-3-PHENYL-2-PROPEN-1-OL]
EFFECTIVE CONCENTRATION [2]: 6.50E−02 micrograms/L AIR | EXPERT RATING [2]: 2

C[C@H]1CCO[C@@H](c2ccccc2)C1 (racemic) [(2RS,4SR)-4-METHYL-2-PHENYLTETRAHYDRO-2H-PYRAN]
EFFECTIVE CONCENTRATION [2]: 2.67E−01 micrograms/L AIR | EXPERT RATING [2]: 3

C=CC(C)CCCC(C)(C)O (racemic)
EFFECTIVE CONCENTRATION [1]: 4.33E+00 micrograms/L AIR | EXPERT RATING [1]: 2

C=CCOC(=O)CCCCCC [ALLYL HEPTANOATE]
EFFECTIVE CONCENTRATION [1]: 4.13E+00 micrograms/L AIR | EXPERT RATING [1]: 3

COc1ccc(C=O)cc1 [4-METHOXYBENZALDEHYDE]
EFFECTIVE CONCENTRATION [1]: 6.83E−02 micrograms/L AIR | EXPERT RATING [1]: 2

CCOC(=O)CC1(C)OCCO1 [ETHYL 2-METHYL-1,3-DIOXOLANE-2-ACETATE]
EFFECTIVE CONCENTRATION [1]: 7.07E+00 micrograms/L AIR | EXPERT RATING [1]: 2
